In patent publication US20250011873A1, “ENDOCRINE TREATMENT OF HORMONE RECEPTOR POSITIVE BREAST CANCER TYPED AS HAVING A LOW RISK OF RECURRENCE” (Agendia N.V., priority 2021, published 2025):

Columns and labels:
[1] = system: early-stage ER positive breast cancer; conditions: tamoxifen for five years; during the treatment period; cited from earlier work
[2] = system: hormone-receptor (+) breast cancer; conditions: cited from earlier work
[3] = system: hormone-receptor (+) breast cancer; assay: NSABP B-42 randomized, double-blinded, placebo-controlled trial of extended adjuvant letrozole, analysed by MammaPrint risk group; assay type: in vivo, human; conditions: for HR, DFS: B-42 primary endpoint; for 10-year rate (%), letrozole arm (DFS rows: disease-free survival rate; DR/BCFI rows: event rate) / # Events (Letrozole): letrozole arm; for Abs. benefit (%): 10-year
Excerpt: NSABP B42 (Mamounas et al., 2019. Lancet Oncol 20: 88-99) refers to a randomized, double-blinded, placebo-controlled clinical trial of extended adjuvant endocrine therapy (tx) with letrozole (L) in postmenopausal women with hormone-receptor (+) breast cancer (BC) who have completed previous adjuvant tx with an aromatase inhibitor (AI). A pre-treatment gene expression biomarker such as MammaPrint may identify breast cancers at risk of recurrence in years 5 to 10 after diagnosis, for whom EET will be beneficial.
The MammaPrint test uses the expression levels of 70 genes to assess a patient's risk of recurrence. For the primary analysis, patient tumor samples were classified into a High Risk or Low Risk group by the 0.00 threshold in the MammaPrint index (high up to and low above 0.00 index, respectively). Recently, a subgroup of ultralow tumors is defined by MammaPrint index>+0.355 (Esserman et al., 2017. JAMA Oncol 3: 1503-1510).
Population for all analyses was based on the intention-to-treat (ITT) principle: patients were analyzed according to their randomized treatment, regardless of what they actually receive. This ensures the strengths of randomization are kept (an equal balance of potential prognostic factors between both groups), but it estimates the treatment effect in clinical practice.
Within the total study population and within each treatment arm, univariate Cox Regression Analysis were performed for MammaPrint risk groups and all available clinical, pathological, therapeutic variables. Summary statistics from the Cox model included the number of patients analyzed, hazard ratio (with 95% confidence interval (CI)) of the comparison and the according p-value. A p-value less than 0.05 (two sided) was considered statistically significance.
Differences in primary and secondary endpoints between placebo and letrozole groups were assessed by stratified log-rank tests. Stratification factors included original stratification factors from the parent B-42 trial, i.e., pathological node status at diagnosis (negative vs positive), prior tamoxifen use (no vs yes), and lowest bone mineral density T score in the lumbosacral spine, total hip, or femoral neck (≤−2.0 or >−2.0 SD).
Multivariate Cox Regression Analysis were utilized to examine the interaction between EET treatment and MP Risk index. Secondary elaborated multivariate analyses were performed to examine interaction with MammaPrint, EET treatment and any clinical and pathologic variable. Summary statistics from these Cox models include the number of patients analyzed, hazard ratios (with 95% CI) of the comparisons and the according p-values.
The following event variables were used for appropriate analyses: • Distant Recurrence (DR): yes vs. no • Time to DR: continuous months • Overall Survival (OS): yes vs. no • Time to Death: continuous months • Disease Free Survival (DFS): yes vs. no • Time to DFS: continuous months • Breast Cancer Free Interval (BCFI): yes vs. no • Time to BCFI: continuous months
A Kaplan-Meier curve with corresponding Log-rank test was used to visualize the survival distribution function for each MammaPrint risk group. Cox PH models stratified by nodal status, prior tamoxifen use, and lowest bone mineral density T-score was used to explore the association among risk factors listed to survival outcomes. This was done for each treatment arm. Kaplan-Meier curves were also used to visualize the survival distribution function for each treatment group.
NSABP-B42 assessed the effect of 5 years of letrozole after 5 years of prior endocrine therapy in postmenopausal women with early stage hormone receptor positive (HR+) breast cancer. Randomization occurred five years after diagnosis.
There were 3,966 patients randomly assigned to placebo or letrozole. Among them, 63 were excluded due to either no clinical assessment or not being at risk for the primary DFS endpoint for the B-42 parent trial. Blocks were available for 2,339 patients who consented for future research. […]

[4] = BCFI, MP Risk Group H, letrozole vs placebo
[5] = BCFI, MP Risk Group L, letrozole vs placebo
[6] = BCFI, MP Risk Group LNUL, letrozole vs placebo
[7] = BCFI, MP Risk Group UL, letrozole vs placebo
[8] = DFS, MP Risk Group H, letrozole vs placebo
[9] = DFS, MP Risk Group L, letrozole vs placebo
[10] = DFS, MP Risk Group LNUL, letrozole vs placebo
[11] = DFS, MP Risk Group UL, letrozole vs placebo
[12] = DR, MP Risk Group H, letrozole vs placebo
[13] = DR, MP Risk Group L, letrozole vs placebo
[14] = DR, MP Risk Group LNUL, letrozole vs placebo
[15] = DR, MP Risk Group UL, letrozole vs placebo
[16] = all patients of the translational MP cohort, letrozole vs placebo

CC/C(=C(\c1ccccc1)c1ccc(OCCN(C)C)cc1)c1ccccc1 [tamoxifen]
reduction of recurrence rate compared to placebo [1]: 50%

N#Cc1ccc(C(c2ccc(C#N)cc2)n2cncn2)cc1 [Letrozole, letrozole]
prolongation of disease-free survival (DFS) ([2]; NSABP B42, extended letrozole therapy compared to the placebo group (Mamounas et al., 2019)): no statistically significant prolongation | reduction in distant recurrence (DR) in the letrozole arm ([2]; NSABP B42, extended letrozole vs placebo (Mamounas et al., 2019)): 28% | HR, DFS ([3]; 6.9 years of median follow-up): 0.85 | HR, DFS ([3]; updated results, 10.3 years of median follow-up): 0.85 | reduction of distant recurrence (DR) in the letrozole arm ([3]; B-42 secondary endpoint): 28% | 10-year rate (%), letrozole arm (DFS rows: disease-free survival rate; DR/BCFI rows: event rate) ([3]; BCFI, MP Risk Group H): 14.6% | # Events (Letrozole) ([3]; BCFI, MP Risk Group H): 42 | HR (95% CI) [3, 4]: 1.15 | Abs. benefit (%) [3, 4]: −3.0% | HR (95% CI) ([3]; BCFI, MP Risk Group H, letrozole vs placebo, listed as letrozole): 1.15 (0.74, 1.79) | 10-year rate (%), letrozole arm (DFS rows: disease-free survival rate; DR/BCFI rows: event rate) ([3]; BCFI, MP Risk Group L): 8.4% | # Events (Letrozole) ([3]; BCFI, MP Risk Group L): 44 | HR (95% CI) [3, 5]: 0.51 | Abs. benefit (%) [3, 5]: 7.0% | HR (95% CI) ([3]; BCFI, MP Risk Group L, letrozole vs placebo, listed as letrozole): 0.51 (0.35, 0.74) | 10-year rate (%), letrozole arm (DFS rows: disease-free survival rate; DR/BCFI rows: event rate) ([3]; BCFI, MP Risk Group LNUL): 8.7% | # Events (Letrozole) ([3]; BCFI, MP Risk Group LNUL): 36 | HR (95% CI) [3, 6]: 0.48 | Abs. benefit (%) [3, 6]: 7.9% | HR (95% CI) ([3]; BCFI, MP Risk Group LNUL, letrozole vs placebo, listed as letrozole): 0.48 (0.32-0.73) | 10-year rate (%), letrozole arm (DFS rows: disease-free survival rate; DR/BCFI rows: event rate) ([3]; BCFI, MP Risk Group UL): 7.3% | # Events (Letrozole) ([3]; BCFI, MP Risk Group UL): 8 | HR (95% CI) [3, 7]: 0.67 | Abs. benefit (%) [3, 7]: 4.1% | HR (95% CI) ([3]; BCFI, MP Risk Group UL, letrozole vs placebo, listed as letrozole): 0.67 (0.28, 1.65) | 10-year rate (%), letrozole arm (DFS rows: disease-free survival rate; DR/BCFI rows: event rate) ([3]; DFS, MP Risk Group H): 71.2% | # Events (Letrozole) ([3]; DFS, MP Risk Group H): 91 | HR (95% CI) [3, 8]: 1.10 | Abs. benefit (%) [3, 8]: −1.6% | HR (95% CI) ([3]; DFS, MP Risk Group H, letrozole vs placebo, listed as letrozole): 1.10 (0.82, 1.47) | 10-year rate (%), letrozole arm (DFS rows: disease-free survival rate; DR/BCFI rows: event rate) ([3]; DFS, MP Risk Group L): 79.7% | # Events (Letrozole) ([3]; DFS, MP Risk Group L): 113 | HR (95% CI) [3, 9]: 0.67 | Abs. benefit (%) [3, 9]: 7.8% | HR (95% CI) ([3]; DFS, MP Risk Group L, letrozole vs placebo, listed as letrozole): 0.67 (0.52, 0.85) | 10-year rate (%), letrozole arm (DFS rows: disease-free survival rate; DR/BCFI rows: event rate) ([3]; DFS, MP Risk Group LNUL): 78.9% | # Events (Letrozole) ([3]; DFS, MP Risk Group LNUL): 93 | HR (95% CI) [3, 10]: 0.64 | Abs. benefit (%) [3, 10]: 9.5% | HR (95% CI) ([3]; DFS, MP Risk Group LNUL, letrozole vs placebo, listed as letrozole): 0.64 (0.49, 0.83) | 10-year rate (%), letrozole arm (DFS rows: disease-free survival rate; DR/BCFI rows: event rate) ([3]; DFS, MP Risk Group UL): 82.5% | # Events (Letrozole) ([3]; DFS, MP Risk Group UL): 20 | HR (95% CI) [3, 11]: 0.82 | Abs. benefit (%) [3, 11]: 1.8% | HR (95% CI) ([3]; DFS, MP Risk Group UL, letrozole vs placebo, listed as letrozole): 0.82 (0.45, 1.48) | 10-year rate (%), letrozole arm (DFS rows: disease-free survival rate; DR/BCFI rows: event rate) ([3]; DR, MP Risk Group H): 4.9% | # Events (Letrozole) ([3]; DR, MP Risk Group H): 15 | HR (95% CI) [3, 12]: 0.65 | Abs. benefit (%) [3, 12]: 2.4% | HR (95% CI) ([3]; DR, MP Risk Group H, letrozole vs placebo, listed as letrozole): 0.65 (0.34, 1.24) | 10-year rate (%), letrozole arm (DFS rows: disease-free survival rate; DR/BCFI rows: event rate) ([3]; DR, MP Risk Group L): 3.5% | # Events (Letrozole) ([3]; DR, MP Risk Group L): 20 | HR (95% CI) [3, 13]: 0.43 | Abs. benefit (%) [3, 13]: 3.7% | HR (95% CI) ([3]; DR, MP Risk Group L, letrozole vs placebo, listed as letrozole): 0.43 (0.25, 0.74) | 10-year rate (%), letrozole arm (DFS rows: disease-free survival rate; DR/BCFI rows: event rate) ([3]; DR, MP Risk Group LNUL): 3.6% | # Events (Letrozole) ([3]; DR, MP Risk Group LNUL): 17 | HR (95% CI) [3, 14]: 0.42 | Abs. benefit (%) [3, 14]: 4.0% | HR (95% CI) ([3]; DR, MP Risk Group LNUL, letrozole vs placebo, listed as letrozole): 0.42 (0.23, 0.76) | 10-year rate (%), letrozole arm (DFS rows: disease-free survival rate; DR/BCFI rows: event rate) ([3]; DR, MP Risk Group UL): 2.9% | # Events (Letrozole) ([3]; DR, MP Risk Group UL): 3 | HR (95% CI) [3, 15]: 0.53 | Abs. benefit (%) [3, 15]: 3.0% | HR (95% CI) ([3]; DR, MP Risk Group UL, letrozole vs placebo, listed as letrozole): 0.53 (0.13, 2.15) | HR, rate of DR ([3]; Excluded B-42 cohort, letrozole vs placebo): 0.92 | HR, BCFI ([3]; MP-H subgroup, after 5.2 years (time-dependent analysis)): 2.77 | HR, BCFI ([3]; MP-H subgroup, prior to 5.2 years (time-dependent analysis)): 0.65 | HR, BCFI ([3]; MP-L subgroup, after 5.2 years (time-dependent analysis)): 0.37 | HR, BCFI ([3]; MP-L subgroup, prior to 5.2 years (time-dependent analysis)): 0.65 | HR, breast cancer-free interval [3, 16]: 0.70 (0.53, 0.93) | HR, disease-free survival [3, 16]: 0.81 (0.68, 0.98)
